Assay results reported in patent US20080089947A1, “Calcium Influx Inhibitors in the Treatment of Ischemia” (priority 2006, published 2008).
In brackets after ≈: the same amount, converted by molar mass. Entries after “also recorded” stand apart in the source; their conditions may differ.

Legend:
[1] = system: mitochondrial calcium uptake (mitochondrial calcium uniporter); assay: 45Ca2+ uptake in isolated liver mitochondria; format: biochemical, rat; conditions: for EC50: isolated mitochondria, pyruvate and malate, read-out: EC50 of inhibition of mitochondrial calcium uptake
Description: Livers were isolated from male Sprague-Dawley rats (300 g). Rats were anesthetized with isoflurane and sacrificed by cervical dislocation. […] Briefly, the liver was minced and homogenized in liver homogenization buffer (LHB)(0.2 M mannitol, 50 mM sucrose, 10 mM KCl, and 1 mM Na2EDTA, pH=7.4, KOH). The homogenate was filtered through gauze and centrifuged 2 times for 10 min at 1,000× g. The supernatant was collected and centrifuged for 10 min at 3,000× g. The pellet was washed twice and resuspended in calcium-free LHB without EDTA to a concentration of 2 mg/mL. All steps were performed at 4° C.
A combination of metabolic substrates pyruvic acid and malic acid (final concentration 1 mM each) was used as a source of mitochondrial energy. Radioactive ^45Ca^2+ (NEN Life Sciences Products, Inc., Boston, Mass.) was added to the incubation buffer (final concentration range: 0.1-2.0 μM). The experiments were initiated by addition of mitochondria to the incubation buffer (final concentration 0.2 mg/ml). 2-APB (in DMSO) was added at concentrations from 0-100 μM to determine its effects on mitochondrial calcium uptake. Mitochondria were incubated in a 37° C. shaking water bath for 30 minutes, filtered, and washed. Accumulated mitochondrial ^45Ca^2+ was then measured using liquid scintillation counting in a Beckman LS6000IC beta counter. Mitochondria in incubation buffer without pyruvic acid and malic acid served as background controls. Ruthenium red (10 μM), a uniporter antagonist, was tested in all conditions to determine inhibitory capacity on observed mitochondrial calcium uptake, and to ensure that all observed calcium uptake was through the uniporter.
A combination of metabolic substrates pyruvic acid and malic acid was used as a source of mitochondrial energy. Radioactive ^45Ca^2+ was added to the incubation buffer (final concentration range: 0.1-2.0 μM). […] The calcium uptake experiments were initiated by addition of mitochondria to the incubation buffer (final concentration 0.2 mg/ml). Mitochondria were incubated in a 37° C. shaking water bath for 30 minutes, filtered, and washed, and calcium uptake quantified. Mitochondria in incubation buffer without pyruvic acid and malic acid served as background controls.

[2] = system: liver ischemia/reperfusion injury
Description: 2-APB (2 mg/kg in DMSO), or vehicle (DMSO) was injected into the portal vein following 1 hour of ischemia, concurrent with removal of the vascular clamp. Animals were sacrificed after 3 hours of reperfusion (n=6 per group). Serum AST, ALT, and LDH levels were measured, and liver samples were evaluated histologically using H&E and TUNEL staining. To investigate the effect of 2-APB at the cellular level, an I/R model in HepG2 cells transfected with GFP-tagged cytochrome c was used. Statistical significance was assessed using Student t-test.

liver transplantation = conditions: donor livers cold stored 24 hours in UW containing 2-APB
Description: In further experiments, full scale liver transplants were performed in rats. Livers were harvested from male Sprague-Dawly rats and cold stored for 24 hours in UW solution, or UW containing 2-APB. The livers were then removed from cold storage and transplanted into recipient rats. The operations were performed under general anesthesia, and the animals were followed after surgery for 2 days.

[3] = system: liver ischemia/reperfusion injury; remark: listed apart in the source
Description: Methods: Following overnight fast, male Sprague-Dawley rats were placed under general anesthesia with isoflurane gas (3%, 2 L O2). Via a midline incision, a laparotomy was performed and the portal vein, hepatic artery, and bile duct were identified and dissected free from surrounding structures. […] Approximately 70% liver ischemia was created by using an atraumatic vessel clamp (S&T Microclamp B-3, Fine Science Tools, Foster City, Calif.) to occlude the portal vein and hepatic artery branches to the median and left liver lobes. […] The clamp was removed after 1 hour and the livers were given three hours to reperfuse with blood while the animals were conscious. Liver injury was assessed by serum levels of AST, ALT, LDH, which are three standard serum markers of acute ischemia/reperfusion injury to the liver. Histologic liver analysis using H&E staining and TUNEL assay, which identifies terminally damaged (apoptotic) cells, were used to look directly at cell damage in the collected livers.
Serum Transaminase Determinations: Serum collected from each animal at the time of euthanasia was analyzed for aspartate aminotransferase (AST), alanine aminotransferase (ALT), and lactic acid dehydrogenase (LDH) concentrations.
Assessment of apoptosis: In order to quantitate the rate of apoptosis in a sensitive manner, the inventors performed terminal deoxynucleotidyl transferase-mediated deoxyuridine triphosphate nick-end labeling (TUNEL) on paraffin embedded tissue sections from each animal. This assay was performed following the manufacturer's recommendations for a commercially available kit (ApopTag Plus Fluorescein In Situ Apoptosis Detection Kit, Chemicon International, Inc., Temecula, Calif.). Five randomly selected fields from each tissue section were examined at an original magnification of 200×. The number of positively staining cells per field was recorded. The average number of positively staining nuclei per field for each animal was used for analysis.
Quantitation of liver necrosis: Paraffin embedded tissue sections were stained with hematoxylin and eosin (H&E) and examined at an original magnification of 200×. Digital photomicrographs were made from five randomly selected fields of each tissue section. […] ImagePro software was used to create specific overlays of any region of necrosis in each of the photomicrographs. Using these overlays, percent area necrosis was calculated for each photomicrograph. The average percent area necrosis for each animal was then used for analysis.

hepG2 cells = conditions: 100 μM in UW prior to cold storage, 6 hour ischemic
Description: To investigate the cellular mechanisms of 2-APB, an in vitro model using hepG2 cells transfected with GFP-tagged cytochrome c was used. […] Cells were grown at 37° C., 5% CO2 in MEM (ATCC, Manassas, Va.), with 10% fetal bovine serum, and 1% penicillin/streptomycin to 80% confluence. The media was replaced with UW solution and cells were incubated at 4° C. in hypoxic conditions for 6 hours. Hypoxia was achieved by placing the cells in an airtight incubator (Form a Scientifica, Marietta, Ohio), which was flushed with 5% CO2 and 95% N2 until the oxygen content in the container reached <0.1%, as verified using a dissolved O2 meter (Model 4000, VWR Scientific Products, Suwannee, Ga.). To render the storage solution hypoxic before experiments were carried out, UW was preincubated in the hypoxic chamber in an open sterile container for 8 h before experiments were carried out. […] Following 6 hours of hypothermic storage, the UW was replaced with warm, oxygenated media, and the cells were incubated at 37° C. Cytoplasmic extracts were harvested in lysis buffer (10 mM of KCl, 10 mM of HEPES, 1 mM of NaEDTA, 200 mM of Mannitol, 50 mM of sucrose) immediately following storage and after 60, 120, and 180 min of rewarming. HepG2 cytoplasmic extracts were harvested before exposure to storage conditions to serve as a control (untreated control). […]

[4] = cited from earlier work
[5] = system: mitochondrial calcium uptake; assay: 45Ca2+ uptake with ATP in mitochondria from non-ischemic and 24 h cold-stored livers; format: biochemical, rat
Description: Methods: Rat livers were perfused and stored using a previously reported technique (Belous et al., 2003). Briefly, an abdominal incision was made and the portal vein was cannulated with a 20-gauge cannula. The liver was then perfused with 30 ml 4° C. University of Wisconsin solution (UW). Half of the liver was processed for calcium uptake experiments immediately, while the other half was first stored for 24 hours in 4° C. UW solution (ischemic cold storage). Mitochondria were isolated from the liver as described in Example 1. Mitochondrial calcium uptake experiments were performed on isolated mitochondria from both the ischemic and non-ischemic portions of the liver as described in Example 1. In order to simulate the cellular conditions present during ischemia/reperfusion, 1 mM ATP was added to the incubation buffer. The selective, membrane-permeable PLC inhibitor, U-73122, was added to mitochondrial calcium uptake reaction tubes to a final concentration of 5 μM. This compound was tested on mitochondria isolated from both ischemic and non-ischemic livers to determine the effect of PLC inhibition on mitochondrial calcium uptake following ischemia/reperfusion. […] Ruthenium red (10 μM) was used to block the uniporter and ensure that all observed calcium uptake was ruthenium red-sensitive, and thus entering solely through the uniporter. To simulate reperfusion, mitochondria were incubated for 30 minutes in a 37° C. water bath with ATP present, after which the total mitochondrial calcium uptake was quantified as described in Example 1.

PLC = conditions: read-out: EC50 reported for PLC inhibition in intact cells; cited from earlier work
[6] = system: liver ischemia/reperfusion injury; assay: 70% liver ischemia/reperfusion, ruthenium red pretreatment; format: in vivo, rat
Description: Thirty minutes prior to the initiation of liver ischemia, animals received ruthenium red (30 mg/kg in NaCl) or vehicle (0.9% NaCl) IV. Ischemia was carried out for one hour. The total anesthesia time for the animals was 90 minutes. Sham operated animals received laparotomy, mobilization of the liver, and underwent equivalent anesthesia. Following vascular clamp removal, animals were allowed to reperfuse for periods of 15 minutes, 1 hr, 3 hr, or 6 hr. At the time of animal sacrifice, serum was collected, and liver tissue was preserved for histological analysis. A total of 40 animals were used for this experiment. Ten animals were used for each time point: 4 ischemia/reperfusion, 4r ischemia/reperfusion with ruthenium red pretreatment, and 2 sham operated animals. […] All experimental measurements and data were obtained as detailed in Example 2.

[7] = 0.5-7.5 μM, 0.2 μM 45Ca2+, baseline 0.14% DMSO
[8] = 30 mg/kg, 30 min before 1 h ischemia, 6 hours of reperfusion

For `NCCOB(c1ccccc1)c1ccccc1` [2-APB, 2-aminoethoxydiphenyl borate], the EC50 ([1]; 30 min, 37° C.) was 2 to 3 µM, the mitochondrial calcium influx ([1]; range of 1-100 μM 2-APB) was “consistently and dose-dependently inhibited” and the “elevation of serum AST, ALT and LDH” value ([2]; 2 mg/kg in DMSO, portal vein at onset of reperfusion, 3 h reperfusion) was “significantly inhibited”. For the same compound, the “liver necrosis, H&E histology” value ([2]; 2-APB administered during reperfusion) was “little evidence of liver necrosis”, the “Mortality at 2 days” value (liver transplantation) was 0% and the “liver damage by serum AST, ALT, LDH in sham-operated animals” value ([3]; 2 mg/kg in DMSO, portal vein, after sham operation) was “neither 2-APB nor the vehicle, DMSO, were damaging to the liver”. For the same compound, the “rise in serum AST, ALT and LDH” value ([3]; 2 mg/kg in DMSO, portal vein, before 1 h ischemia, 3 h reperfusion) was “eliminated the rise in AST, ALT and LDH”, the “liver histology 400×” value ([3]; 2 mg/kg portal vein before 1 h ischemia, 3 h reperfusion) was “Cells are healthy and appear identical to the normal liver cells” and the “cells undergoing cell death” value ([3]; 2 mg/kg portal vein before 1 h ischemia, 3 h reperfusion, H&E and TUNEL) was at most 2%. For the same compound, the “release of GFP-tagged cytochrome c into the cytoplasm” value (hepG2 cells) was “prevented this release”, the “solubility in DMSO” value [4] was 20 mg/mL (≈ 88.8 mM) and the solubility in ethanol [4] was 25 mg/mL (≈ 111 mM).

With `COc1ccc2c(c1)CCC1C2CCC2(C)C(NCCCCCCN3C(=O)C=CC3=O)CCC12` (stereo not drawn) [U-73122, 1-[6-((17β-3-Methoxyestra-1,3,5(10)-trien-17-yl)amino)hexyl]-1H-pyrrole-2,5-dione] the “inhibition of mitochondrial calcium uptake” value ([1]; 5 μM or greater U-73122) was 90-100%, the mitochondrial calcium uptake [1, 7] was “dose-dependently inhibited” and the EC50 ([1]; 30 min, 37° C.) was 2 to 3 µM. The “decrease of mitochondrial calcium uptake” value ([5]; 5 μM, mitochondria from ischemic livers (24 h 4° C. UW), vs. ATP and calcium alone) was 85±2%, the “decrease of mitochondrial calcium influx” value ([5]; 5 μM, mitochondria from non-ischemic livers, vs. ATP and calcium alone) was 54±5% and the “solubility in DMSO” value [4] was 1 mg/mL (≈ 2.15 mM). The solubility in ethanol [4] was 0.5 mg/mL (≈ 1.08 mM) and the EC50 (PLC) was 1 to 2.1 µM.

With `COc1ccc2c(c1)CC[C@@H]1[C@@H]2CC[C@]2(C)[C@@H](NCCCCCCN3C(=O)CCC3=O)CC[C@@H]12` [U-73343, 1-[6-((17β-3-Methoxyestra-1,3,5(10)-trien-17-yl)amino)hexyl]-2,5-pyrrolidinedione] the mitochondrial calcium uptake [1, 7] was “no effect; also recorded: did not significantly affect”, the mitochondrial calcium uptake ([5]; 5 μM, mitochondria from ischemic livers (24 h 4° C. UW)) was “slight and insignificant decrease; also recorded: no effect” and the mitochondrial calcium uptake ([5]; 5 μM, mitochondria from non-ischemic livers) was “slight but significant increase; also recorded: did not”.

For `N.N.N.N.N.N.N.N.N.N.N.N.N.N.[Cl-].[Cl-].[Cl-].[Cl-].[Cl-].[Cl-].[O-2].[O-2].[Ru+3].[Ru+3].[Ru+4]` [ruthenium red], the mitochondrial calcium uptake ([1]; 10 μM ruthenium red, 30 min, 37° C.) was “completely blocked”, the “serum ALT” value [6, 8] was 294±39 and the “serum AST” value [6, 8] was 597±121. The liver necrosis ([6]; 3 and 6 hours of reperfusion) was “significantly decreased”, the “AST and ALT levels” value ([6]; 3 hours of reperfusion) was “trend for the animals pretreated with ruthenium red to have lower AST and ALT levels” and the “liver necrosis, percent area” value ([6]; 3 hours of reperfusion) was 5%±2%. The “reduction in ALT levels” value ([6]; 6 hour reperfusion time point) was 4 fold, the “reduction in AST levels” value ([6]; 6 hour reperfusion time point) was 2.5 fold and the “liver necrosis, percent area” value ([6]; 6 hours of reperfusion) was 3%±1%. For the same compound, the “rate of apoptosis (TUNEL)” value ([6]; all reperfusion time points (15 min, 1, 3, 6 hr)) was “significantly decreased”, the “AST or ALT levels in sham operated animals” value ([6]; pretreatment of sham operated animals vs. vehicle alone) was “did not alter” and the mitochondrial calcium uptake ([5]; 10 μM ruthenium red, mitochondria from both ischemic and non-ischemic livers) was “prevented calcium uptake”. For the same compound, the mitochondrial calcium uptake ([5]; 10 μM ruthenium red, mitochondria from both ischemic and non-ischemic livers, listed as Ruthenium red) was “completely blocked” and the solubility in water [4] was “soluble in water”.

In the case of Ru360, the solubility in water [4] is listed as “soluble in water”.
